Read-outs that look alike come from different tables or passages of the source.
Tests used:
Assay in all cases: KinomeScan kinase panel, single concentration 10 µM
Format in all cases: binding
KinomeScan kinase panel [1] = molecular target: T1, KinomeScan kinase panel (Homo sapiens, UniProt Q8TDR2); details: read-out: score (%)
T1 construct: purchased DiscoveRx (KinomeScan)

KinomeScan kinase panel [2] = molecular target: T2, KinomeScan kinase panel (Homo sapiens, UniProt P24723); details: 10 µM, read-out: score (%)
T2 construct: purchased DiscoveRx (KinomeScan)

KinomeScan kinase panel [3] = molecular target: T3, KinomeScan kinase panel (Homo sapiens, UniProt P12931); details: 10 µM, read-out: score (%)
T3 construct: purchased DiscoveRx (KinomeScan)

KinomeScan kinase panel [4] = molecular target: T4, KinomeScan kinase panel (Homo sapiens, UniProt Q9HBH9); details: MKNK2, 10 µM; read-out: score (%)
T4 construct: purchased DiscoveRx (KinomeScan)

KinomeScan kinase panel [5] = molecular target: T5, KinomeScan kinase panel (Homo sapiens, UniProt P35968); details: kinase VEGFR2; 10 µM; read-out: score (%)
T5 construct: purchased DiscoveRx (KinomeScan)

KinomeScan kinase panel [6] = molecular target: T6, KinomeScan kinase panel (Homo sapiens, UniProt P21709); details: EPHA1, 10 µM; read-out: score (%)
T6 construct: purchased DiscoveRx (KinomeScan)
T6 sequence (P21709 26-976): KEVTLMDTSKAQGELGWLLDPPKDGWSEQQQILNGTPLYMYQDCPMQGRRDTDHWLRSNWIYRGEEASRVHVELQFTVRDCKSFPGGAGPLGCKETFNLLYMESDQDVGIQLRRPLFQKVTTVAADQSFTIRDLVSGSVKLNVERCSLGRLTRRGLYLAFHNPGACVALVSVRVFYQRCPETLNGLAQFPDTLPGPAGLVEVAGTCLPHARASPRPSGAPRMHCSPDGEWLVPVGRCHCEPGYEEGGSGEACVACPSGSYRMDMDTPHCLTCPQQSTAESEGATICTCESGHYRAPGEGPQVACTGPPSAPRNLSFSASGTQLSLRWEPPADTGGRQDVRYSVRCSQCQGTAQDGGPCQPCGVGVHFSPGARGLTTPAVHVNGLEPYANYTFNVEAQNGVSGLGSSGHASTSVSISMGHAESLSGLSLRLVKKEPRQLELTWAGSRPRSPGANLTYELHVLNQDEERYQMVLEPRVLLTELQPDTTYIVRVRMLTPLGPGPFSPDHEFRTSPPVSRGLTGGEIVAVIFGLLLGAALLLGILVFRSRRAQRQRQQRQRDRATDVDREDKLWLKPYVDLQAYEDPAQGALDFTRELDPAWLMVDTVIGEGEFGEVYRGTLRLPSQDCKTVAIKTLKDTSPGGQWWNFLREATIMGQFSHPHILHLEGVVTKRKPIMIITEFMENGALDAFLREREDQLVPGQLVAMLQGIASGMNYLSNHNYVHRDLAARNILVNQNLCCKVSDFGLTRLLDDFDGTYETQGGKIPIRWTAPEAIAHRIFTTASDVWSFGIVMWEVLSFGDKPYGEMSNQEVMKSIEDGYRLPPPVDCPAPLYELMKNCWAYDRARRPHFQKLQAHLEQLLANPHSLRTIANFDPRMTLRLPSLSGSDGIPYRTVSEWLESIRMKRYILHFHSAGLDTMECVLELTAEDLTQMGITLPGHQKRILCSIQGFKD

KinomeScan kinase panel [7] = molecular target: T7, KinomeScan kinase panel (Homo sapiens, UniProt O75716); details: read-out: score (%)
T7 construct: purchased DiscoveRx (KinomeScan)

KinomeScan kinase panel [8] = molecular target: T8, KinomeScan kinase panel (Homo sapiens, UniProt Q14289); details: read-out: score (%)
T8 construct: purchased DiscoveRx (KinomeScan)

KinomeScan kinase panel [9] = molecular target: T9, KinomeScan kinase panel (Homo sapiens, UniProt Q9H0K1); details: read-out: score (%)
T9 construct: purchased DiscoveRx (KinomeScan)

KinomeScan kinase panel [10] = molecular target: T10, KinomeScan kinase panel (Homo sapiens, UniProt O14757); details: CHEK1, 10 µM
T10 construct: purchased DiscoveRx (KinomeScan)
T10 sequence (O14757 1-476): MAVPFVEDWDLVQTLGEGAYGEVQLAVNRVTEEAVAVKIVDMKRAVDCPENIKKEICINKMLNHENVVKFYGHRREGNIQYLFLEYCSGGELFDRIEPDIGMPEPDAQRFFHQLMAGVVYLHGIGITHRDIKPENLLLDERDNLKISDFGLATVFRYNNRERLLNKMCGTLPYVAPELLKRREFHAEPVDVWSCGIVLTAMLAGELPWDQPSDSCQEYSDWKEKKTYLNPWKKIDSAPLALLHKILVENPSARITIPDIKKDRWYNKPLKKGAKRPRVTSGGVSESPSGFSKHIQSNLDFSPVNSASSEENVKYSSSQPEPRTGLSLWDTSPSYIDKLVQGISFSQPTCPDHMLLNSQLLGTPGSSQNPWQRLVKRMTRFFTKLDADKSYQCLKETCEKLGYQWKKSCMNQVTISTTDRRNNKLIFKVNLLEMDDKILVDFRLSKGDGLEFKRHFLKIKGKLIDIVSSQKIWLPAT

KinomeScan kinase panel [11] = molecular target: T11, KinomeScan kinase panel (Homo sapiens, UniProt Q8NFD2); details: ANKK1, 10 µM; read-out: score (%)
T11 construct: purchased DiscoveRx (KinomeScan)
T11 sequence (Q8NFD2 1-765): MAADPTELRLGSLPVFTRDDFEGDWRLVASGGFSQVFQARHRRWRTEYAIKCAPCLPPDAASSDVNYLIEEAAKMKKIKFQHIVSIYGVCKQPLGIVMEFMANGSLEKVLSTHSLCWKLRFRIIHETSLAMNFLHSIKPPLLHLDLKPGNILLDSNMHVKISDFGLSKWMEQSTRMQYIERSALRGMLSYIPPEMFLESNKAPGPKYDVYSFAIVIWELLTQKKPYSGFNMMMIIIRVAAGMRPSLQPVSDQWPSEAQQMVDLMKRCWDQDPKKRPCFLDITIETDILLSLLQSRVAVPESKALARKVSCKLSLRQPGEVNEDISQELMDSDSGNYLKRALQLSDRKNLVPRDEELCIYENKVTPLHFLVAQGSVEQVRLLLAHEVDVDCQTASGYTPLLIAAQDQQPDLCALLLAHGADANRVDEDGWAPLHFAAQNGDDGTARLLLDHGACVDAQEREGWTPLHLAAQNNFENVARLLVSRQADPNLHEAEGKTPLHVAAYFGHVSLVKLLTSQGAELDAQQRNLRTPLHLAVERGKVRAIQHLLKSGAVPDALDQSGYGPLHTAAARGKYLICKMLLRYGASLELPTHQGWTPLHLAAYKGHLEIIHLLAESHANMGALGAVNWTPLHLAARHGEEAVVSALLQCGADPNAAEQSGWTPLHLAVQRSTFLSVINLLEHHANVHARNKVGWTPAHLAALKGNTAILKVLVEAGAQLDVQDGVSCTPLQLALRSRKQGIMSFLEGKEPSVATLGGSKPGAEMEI

KinomeScan kinase panel [12] = molecular target: T12, KinomeScan kinase panel (Homo sapiens, UniProt Q13705); details: ACVR2B, 10 µM
T12 construct: purchased DiscoveRx (KinomeScan)

T7 sequence (O75716 whole entry): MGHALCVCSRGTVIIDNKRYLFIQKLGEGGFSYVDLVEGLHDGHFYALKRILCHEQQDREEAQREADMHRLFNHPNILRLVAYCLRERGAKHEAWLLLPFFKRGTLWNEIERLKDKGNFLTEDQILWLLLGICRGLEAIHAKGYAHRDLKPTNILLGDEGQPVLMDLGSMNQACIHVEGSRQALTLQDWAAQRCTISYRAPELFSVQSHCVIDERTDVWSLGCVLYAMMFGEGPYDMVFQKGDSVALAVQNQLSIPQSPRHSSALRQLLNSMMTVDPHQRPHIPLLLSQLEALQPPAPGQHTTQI
T5 sequence (P35968 20-1356): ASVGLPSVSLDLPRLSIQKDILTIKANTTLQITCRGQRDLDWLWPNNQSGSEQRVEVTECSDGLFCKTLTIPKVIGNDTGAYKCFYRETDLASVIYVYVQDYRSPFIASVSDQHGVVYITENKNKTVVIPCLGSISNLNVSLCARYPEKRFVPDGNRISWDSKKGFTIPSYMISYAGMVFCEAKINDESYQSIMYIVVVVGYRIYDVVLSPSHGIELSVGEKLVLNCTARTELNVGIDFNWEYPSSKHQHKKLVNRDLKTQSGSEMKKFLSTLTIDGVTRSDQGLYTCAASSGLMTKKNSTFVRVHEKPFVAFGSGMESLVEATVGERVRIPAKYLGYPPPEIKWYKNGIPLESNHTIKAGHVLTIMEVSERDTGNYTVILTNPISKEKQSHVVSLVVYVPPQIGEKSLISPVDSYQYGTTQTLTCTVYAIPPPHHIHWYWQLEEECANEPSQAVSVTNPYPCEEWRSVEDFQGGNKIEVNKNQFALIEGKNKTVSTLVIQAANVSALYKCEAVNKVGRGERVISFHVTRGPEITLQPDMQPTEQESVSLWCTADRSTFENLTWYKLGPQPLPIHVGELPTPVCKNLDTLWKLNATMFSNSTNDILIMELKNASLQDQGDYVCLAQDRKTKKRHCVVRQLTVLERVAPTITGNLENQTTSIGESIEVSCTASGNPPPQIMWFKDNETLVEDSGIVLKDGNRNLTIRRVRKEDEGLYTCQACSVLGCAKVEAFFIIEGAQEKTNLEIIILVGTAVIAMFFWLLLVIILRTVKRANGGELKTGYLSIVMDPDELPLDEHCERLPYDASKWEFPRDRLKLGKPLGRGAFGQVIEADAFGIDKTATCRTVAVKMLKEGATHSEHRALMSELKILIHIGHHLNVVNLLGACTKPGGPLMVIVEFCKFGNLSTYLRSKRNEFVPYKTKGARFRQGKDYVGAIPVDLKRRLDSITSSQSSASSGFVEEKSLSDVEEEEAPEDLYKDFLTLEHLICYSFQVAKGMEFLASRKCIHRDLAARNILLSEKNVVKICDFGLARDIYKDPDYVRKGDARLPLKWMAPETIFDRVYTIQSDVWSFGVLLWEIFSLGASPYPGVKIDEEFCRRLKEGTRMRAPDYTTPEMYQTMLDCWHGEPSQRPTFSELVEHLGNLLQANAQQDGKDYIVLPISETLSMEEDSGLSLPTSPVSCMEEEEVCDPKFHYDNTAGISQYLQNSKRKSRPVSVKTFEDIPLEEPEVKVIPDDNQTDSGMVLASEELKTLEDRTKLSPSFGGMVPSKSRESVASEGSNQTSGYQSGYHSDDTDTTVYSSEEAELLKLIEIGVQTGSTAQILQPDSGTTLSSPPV
T2 sequence (P24723 whole entry): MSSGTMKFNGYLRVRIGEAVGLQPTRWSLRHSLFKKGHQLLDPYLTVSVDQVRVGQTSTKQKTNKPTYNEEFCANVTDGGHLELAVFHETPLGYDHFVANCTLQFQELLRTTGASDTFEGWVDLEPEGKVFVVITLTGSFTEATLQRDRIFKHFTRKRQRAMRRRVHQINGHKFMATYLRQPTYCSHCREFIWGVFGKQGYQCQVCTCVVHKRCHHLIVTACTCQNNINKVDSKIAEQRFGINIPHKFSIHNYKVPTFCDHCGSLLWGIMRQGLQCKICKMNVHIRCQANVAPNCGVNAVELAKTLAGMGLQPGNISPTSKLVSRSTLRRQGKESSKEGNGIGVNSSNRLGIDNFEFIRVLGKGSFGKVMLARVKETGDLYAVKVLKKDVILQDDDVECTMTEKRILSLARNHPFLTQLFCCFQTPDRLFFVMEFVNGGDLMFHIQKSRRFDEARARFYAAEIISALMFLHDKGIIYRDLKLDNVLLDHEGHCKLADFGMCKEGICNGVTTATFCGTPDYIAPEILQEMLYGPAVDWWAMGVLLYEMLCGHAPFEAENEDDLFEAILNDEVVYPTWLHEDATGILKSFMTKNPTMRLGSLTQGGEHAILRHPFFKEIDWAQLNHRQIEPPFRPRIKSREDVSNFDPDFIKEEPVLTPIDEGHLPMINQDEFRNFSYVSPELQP
T3 sequence (P12931 whole entry): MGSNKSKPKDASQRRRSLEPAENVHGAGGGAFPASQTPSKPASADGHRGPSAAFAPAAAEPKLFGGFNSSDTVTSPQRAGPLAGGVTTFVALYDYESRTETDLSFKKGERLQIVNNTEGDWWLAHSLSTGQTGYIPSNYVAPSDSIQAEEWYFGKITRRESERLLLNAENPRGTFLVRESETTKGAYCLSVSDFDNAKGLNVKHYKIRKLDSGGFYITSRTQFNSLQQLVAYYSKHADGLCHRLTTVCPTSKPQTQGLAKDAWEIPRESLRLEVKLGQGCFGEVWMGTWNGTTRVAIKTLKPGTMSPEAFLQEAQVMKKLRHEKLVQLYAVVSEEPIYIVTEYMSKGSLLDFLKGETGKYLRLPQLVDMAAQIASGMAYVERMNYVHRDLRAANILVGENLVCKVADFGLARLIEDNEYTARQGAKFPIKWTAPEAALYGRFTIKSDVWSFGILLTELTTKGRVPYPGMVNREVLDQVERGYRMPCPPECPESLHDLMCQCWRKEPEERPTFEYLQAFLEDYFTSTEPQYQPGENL
T9 sequence (Q9H0K1 whole entry): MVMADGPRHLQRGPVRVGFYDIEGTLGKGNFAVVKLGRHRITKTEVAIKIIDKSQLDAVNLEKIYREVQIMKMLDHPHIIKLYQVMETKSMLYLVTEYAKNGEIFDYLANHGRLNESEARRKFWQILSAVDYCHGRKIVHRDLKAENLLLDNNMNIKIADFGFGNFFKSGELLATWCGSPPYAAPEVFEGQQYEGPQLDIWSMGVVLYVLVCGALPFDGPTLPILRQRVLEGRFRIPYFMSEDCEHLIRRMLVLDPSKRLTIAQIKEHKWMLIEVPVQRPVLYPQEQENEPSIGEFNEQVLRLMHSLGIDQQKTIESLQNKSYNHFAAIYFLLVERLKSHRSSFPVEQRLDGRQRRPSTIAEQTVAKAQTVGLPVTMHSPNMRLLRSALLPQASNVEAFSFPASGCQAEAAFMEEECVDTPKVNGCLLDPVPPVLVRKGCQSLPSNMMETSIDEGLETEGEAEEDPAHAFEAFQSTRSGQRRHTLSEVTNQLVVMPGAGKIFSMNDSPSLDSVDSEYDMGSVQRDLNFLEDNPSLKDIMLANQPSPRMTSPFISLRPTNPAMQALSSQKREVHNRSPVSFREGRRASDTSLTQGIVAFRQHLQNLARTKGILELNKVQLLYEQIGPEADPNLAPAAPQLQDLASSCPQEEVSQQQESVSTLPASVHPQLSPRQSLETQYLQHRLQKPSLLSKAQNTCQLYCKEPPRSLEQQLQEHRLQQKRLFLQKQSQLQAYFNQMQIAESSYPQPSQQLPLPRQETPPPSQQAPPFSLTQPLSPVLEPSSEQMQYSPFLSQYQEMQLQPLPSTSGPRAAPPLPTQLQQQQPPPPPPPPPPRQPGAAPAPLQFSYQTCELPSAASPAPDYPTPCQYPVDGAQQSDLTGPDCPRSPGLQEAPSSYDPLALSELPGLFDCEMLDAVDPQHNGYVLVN
T4 sequence (Q9HBH9 whole entry): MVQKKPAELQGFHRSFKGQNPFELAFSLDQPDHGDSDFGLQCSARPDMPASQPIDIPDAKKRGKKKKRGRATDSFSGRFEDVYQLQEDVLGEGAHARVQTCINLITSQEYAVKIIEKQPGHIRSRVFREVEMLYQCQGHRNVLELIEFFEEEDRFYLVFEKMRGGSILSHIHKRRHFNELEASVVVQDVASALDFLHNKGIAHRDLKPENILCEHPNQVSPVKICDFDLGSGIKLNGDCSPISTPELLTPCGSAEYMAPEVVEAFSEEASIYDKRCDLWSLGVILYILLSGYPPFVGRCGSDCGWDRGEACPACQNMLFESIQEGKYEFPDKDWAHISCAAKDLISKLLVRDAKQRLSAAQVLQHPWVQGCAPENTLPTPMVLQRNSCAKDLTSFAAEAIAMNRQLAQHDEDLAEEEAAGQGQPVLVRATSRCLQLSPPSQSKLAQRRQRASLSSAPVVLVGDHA
T1 sequence (Q8TDR2 whole entry): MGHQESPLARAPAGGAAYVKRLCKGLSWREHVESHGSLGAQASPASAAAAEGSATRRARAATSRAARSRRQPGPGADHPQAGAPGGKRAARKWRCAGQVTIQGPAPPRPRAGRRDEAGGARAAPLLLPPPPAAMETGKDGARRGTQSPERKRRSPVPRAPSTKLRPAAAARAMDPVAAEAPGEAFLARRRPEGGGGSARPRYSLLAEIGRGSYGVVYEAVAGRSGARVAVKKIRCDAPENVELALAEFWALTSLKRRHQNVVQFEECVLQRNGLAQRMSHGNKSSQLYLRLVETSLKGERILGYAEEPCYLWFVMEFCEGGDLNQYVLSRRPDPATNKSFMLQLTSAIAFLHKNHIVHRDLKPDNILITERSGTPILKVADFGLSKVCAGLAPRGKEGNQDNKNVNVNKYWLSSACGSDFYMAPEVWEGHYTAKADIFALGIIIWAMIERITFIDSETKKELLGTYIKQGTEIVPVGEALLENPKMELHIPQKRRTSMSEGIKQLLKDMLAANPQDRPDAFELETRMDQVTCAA

remaining binding at 10 µM (KinomeScan kinase panel [1]; STK35, 10 µM) | remaining binding at 10 µM (KinomeScan kinase panel [3]; SRC) | remaining binding at 10 µM (KinomeScan kinase panel [7]; STK16, 10 µM) | remaining binding at 10 µM (KinomeScan kinase panel [8]; PTK2B, 10 µM) | remaining binding at 10 µM (KinomeScan kinase panel [9]; SNF1LK2, 10 µM) | Compound | remaining binding at 10 µM (KinomeScan kinase panel [1]; kinase STK35, 10 µM) | remaining binding at 10 µM (KinomeScan kinase panel [2]; PRKCH) | remaining binding at 10 µM (KinomeScan kinase panel [3]; kinase SRC) | remaining binding at 10 µM (KinomeScan kinase panel [4]) | remaining binding at 10 µM (KinomeScan kinase panel [5]) | remaining binding at 10 µM (KinomeScan kinase panel [6]) | remaining binding at 10 µM (KinomeScan kinase panel [7]; kinase STK16, 10 µM) | remaining binding at 10 µM (KinomeScan kinase panel [8]; PYK2, 10 µM) | remaining binding at 10 µM (KinomeScan kinase panel [9]; kinase SIK2, 10 µM) | score (%) (KinomeScan kinase panel [10]) | remaining binding at 10 µM (KinomeScan kinase panel [11]) | score (%) (KinomeScan kinase panel [12]) | remaining binding at 10 µM (KinomeScan kinase panel [2]; kinase PRKCH) | remaining binding at 10 µM (KinomeScan kinase panel [8]; kinase PYK2, 10 µM)
– | – | – | – | – | CCN1CCN(Cc2ccc(NC(=O)c3ccc(C)c(NC(=O)c4cncc(-c5cccs5)c4)c3)cc2C(F)(F)F)CC1 [ALW-II-41-27] | 21% | 4.6% | 0.1% | > 30% | 1.8% | 3.8% | > 30% | 2.4% | 13% | nb (Hits values higher than 30% were considered negative (no binding: nb)) | 1.4% | nb (Hits values higher than 30% were considered negative (no binding: nb)) | – | –
> 30% | 0.25% | 18% | 5.5% | 6.4% | CCN1CCN(Cc2ccc(NC(=O)c3ccc(C)c(/C=C/c4cnc5[nH]ccc5c4Cl)c3)cc2C(F)(F)F)CC1 [HG-6-63-01, (E)-3-(2-(4-chloro-1H-pyrrolo[2,3-b]pyridin-5-yl)vinyl)-N-(4-((4-ethylpiperazin-1-yl)methyl)-3-(trifluoromethyl)phenyl)-4-methylbenzamide] | – | > 30% | – | 0.75% | 0.35% | 5.5% | – | – | – | 25% | 0.4% | nb (Hits values higher than 30% were considered negative (no binding: nb)) | – | –
– | – | – | – | – | CCN1CCN(Cc2ccc(NC(=O)c3ccc(C)c(C#Cc4cccnc4)c3)cc2C(F)(F)F)CC1 [XMD15-44] | 1.6% | – | 0% | 0% | 0.25% | 1.2% | 100% | – | 21% | nb (Hits values higher than 30% were considered negative (no binding: nb)) | 8.2% | nb (Hits values higher than 30% were considered negative (no binding: nb)) | 67% | 0.4%

— PMC4457528, “Identification of Novel Small Molecule Inhibitors of Oncogenic RET Kinase” (PLoS ONE, 2015)
